Experimental data as given in BigSolDB 2.1.

CC(=O)Nc1ccc([N+](=O)[O-])cc1
solubility (mole fraction)
Conditions	278.15 K	283.15 K	288.15 K	293.15 K	298.15 K	303.15 K	308.15 K	313.15 K	318.15 K	323.15 K
in 1,4-dioxane	–	–	0.00627	0.00697	0.00787	0.00907	0.0107	0.0127	0.0151	0.0182
in DMF	0.102	0.107	0.112	0.118	0.126	0.135	0.145	0.156	0.171	0.187
in NMP	0.0745	0.0841	0.0984	0.111	0.126	0.144	0.163	0.184	0.21	0.244
in acetonitrile	0.00235	0.00271	0.00325	0.00386	0.00456	0.00545	0.0065	0.00778	0.00923	0.011
in cyclohexane	–	1.94e-06	2.71e-06	3.77e-06	5.18e-06	6.81e-06	8.98e-06	1.16e-05	1.49e-05	1.91e-05
in ethanol	0.00182	0.00222	0.00265	0.00318	0.00377	0.00458	0.00542	0.00641	0.00772	0.00921
in ethyl acetate	0.00357	0.00414	0.00481	0.00562	0.00682	0.00824	0.00993	0.0118	0.0144	0.0171
in ethylene glycol	0.000807	0.000953	0.00114	0.00141	0.00171	0.00208	0.00246	0.00301	0.00367	0.00451
in isobutanol	0.00132	0.00158	0.00193	0.00233	0.00284	0.00335	0.00405	0.00488	0.00602	0.00728
in isopropanol	0.00166	0.00201	0.00241	0.00292	0.00348	0.00436	0.00515	0.0062	0.00736	0.00868
in methanol	0.00147	0.00182	0.00215	0.00261	0.00312	0.00366	0.00441	0.00543	0.0065	0.00772
in n-butanol	0.00225	0.0026	0.00308	0.0036	0.0043	0.00512	0.0062	0.0074	0.00894	0.0106
in n-heptanol	0.00264	0.00303	0.00354	0.00417	0.00508	0.00621	0.00742	0.00911	0.0108	0.013
in n-propanol	0.0021	0.00251	0.00297	0.00352	0.00418	0.00496	0.00595	0.00714	0.00856	0.0101
in water	6.37e-06	7.72e-06	1.04e-05	1.34e-05	1.68e-05	2.23e-05	2.89e-05	3.67e-05	4.69e-05	6.01e-05
